Measurements reported in patent US11547697B2, “Heterocyclic compounds and uses thereof” (MILLENNIUM PHARMACEUTICALS, INC., priority 2009, dated 2023).
Like-named read-outs stand apart in the source and are kept apart here.

What was measured:
p110δ/p85α = p110δ/p85α (Homo sapiens (Human), UniProt O00329); test: PI 3-Kinase (human) HTRF assay, p110δ/p85α; type: biochemical
Method: (§1) An exemplary system is PI 3-Kinase (human) HTRF™ Assay from Upstate. […] Briefly, the assay is a time resolved FRET assay that indirectly measures PIP3 product formed by the activity of a PI3-K. The kinase reaction is performed in a microtitre plate (e.g., a 384 well microtitre plate). The total reaction volume is approximately 20 ul per well. In the first step, each well receives 2 ul of test compound in 20% dimethylsulphoxide resulting in a 2% DMSO final concentration. Next, approximately 14.5 ul of a kinase/PIP2 mixture (diluted in 1× reaction buffer) is added per well for a final concentration of 0.25-0.3 ug/ml kinase and 10 μM PIP2. The plate is sealed and incubated for 15 minutes at room temperature. To start the reaction, 3.5 ul of ATP (diluted in 1× reaction buffer) is added per well for a final concentration of 10 μM ATP. The plate is sealed and incubated for 1 hour at room temperature. The reaction is stopped by adding 5 ul of Stop Solution per well and then 5 ul of Detection Mix is added per well. The plate is sealed, incubated for 1 hour at room temperature, and then read on an appropriate plate reader. Data is analyzed and IC50s are generated using GraphPad Prism 5. […] For PI3K α, β, δ, and γ, the nM concentration of inhibitor to reach IC50 is provided.

[1] = system: tumor cells with a PI3Kα mutation (e.g., MDA-MB-361 and T47D); test: Proliferation of tumor cells with PI3Kα mutation; type: cell-based; details: Homo sapiens
p110β/p85α = p110β/p85α (Homo sapiens (Human), UniProt P42338); test: PI 3-Kinase (human) HTRF assay, p110β/p85α; type: biochemical
Chain of p110β/p85α (P42338 whole entry): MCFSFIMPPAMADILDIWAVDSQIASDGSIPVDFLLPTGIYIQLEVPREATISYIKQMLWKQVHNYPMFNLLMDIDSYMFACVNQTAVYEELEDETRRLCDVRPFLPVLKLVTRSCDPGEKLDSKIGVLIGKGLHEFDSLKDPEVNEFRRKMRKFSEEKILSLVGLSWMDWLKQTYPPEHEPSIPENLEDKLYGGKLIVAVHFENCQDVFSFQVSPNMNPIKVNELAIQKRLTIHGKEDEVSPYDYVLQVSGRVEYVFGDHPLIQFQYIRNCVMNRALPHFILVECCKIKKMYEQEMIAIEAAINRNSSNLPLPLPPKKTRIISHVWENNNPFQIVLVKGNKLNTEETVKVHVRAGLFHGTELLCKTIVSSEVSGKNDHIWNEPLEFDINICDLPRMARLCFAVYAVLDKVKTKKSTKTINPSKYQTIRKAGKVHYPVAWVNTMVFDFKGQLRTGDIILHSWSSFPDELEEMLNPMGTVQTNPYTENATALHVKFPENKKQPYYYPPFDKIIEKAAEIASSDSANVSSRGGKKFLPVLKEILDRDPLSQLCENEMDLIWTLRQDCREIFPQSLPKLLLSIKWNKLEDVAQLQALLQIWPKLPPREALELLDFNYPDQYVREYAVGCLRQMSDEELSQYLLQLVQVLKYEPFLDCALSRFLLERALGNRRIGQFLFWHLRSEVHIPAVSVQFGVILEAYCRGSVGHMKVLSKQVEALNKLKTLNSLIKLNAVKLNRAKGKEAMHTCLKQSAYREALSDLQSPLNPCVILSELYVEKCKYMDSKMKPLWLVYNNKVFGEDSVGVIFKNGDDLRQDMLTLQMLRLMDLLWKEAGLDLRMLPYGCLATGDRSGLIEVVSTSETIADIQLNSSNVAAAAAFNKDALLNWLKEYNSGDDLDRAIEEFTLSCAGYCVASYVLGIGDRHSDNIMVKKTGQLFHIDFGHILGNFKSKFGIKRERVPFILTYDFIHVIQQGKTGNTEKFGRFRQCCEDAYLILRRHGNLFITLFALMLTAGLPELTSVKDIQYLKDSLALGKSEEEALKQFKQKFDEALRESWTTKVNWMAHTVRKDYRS
Chain of p110β/p85α (P27986 whole entry partner): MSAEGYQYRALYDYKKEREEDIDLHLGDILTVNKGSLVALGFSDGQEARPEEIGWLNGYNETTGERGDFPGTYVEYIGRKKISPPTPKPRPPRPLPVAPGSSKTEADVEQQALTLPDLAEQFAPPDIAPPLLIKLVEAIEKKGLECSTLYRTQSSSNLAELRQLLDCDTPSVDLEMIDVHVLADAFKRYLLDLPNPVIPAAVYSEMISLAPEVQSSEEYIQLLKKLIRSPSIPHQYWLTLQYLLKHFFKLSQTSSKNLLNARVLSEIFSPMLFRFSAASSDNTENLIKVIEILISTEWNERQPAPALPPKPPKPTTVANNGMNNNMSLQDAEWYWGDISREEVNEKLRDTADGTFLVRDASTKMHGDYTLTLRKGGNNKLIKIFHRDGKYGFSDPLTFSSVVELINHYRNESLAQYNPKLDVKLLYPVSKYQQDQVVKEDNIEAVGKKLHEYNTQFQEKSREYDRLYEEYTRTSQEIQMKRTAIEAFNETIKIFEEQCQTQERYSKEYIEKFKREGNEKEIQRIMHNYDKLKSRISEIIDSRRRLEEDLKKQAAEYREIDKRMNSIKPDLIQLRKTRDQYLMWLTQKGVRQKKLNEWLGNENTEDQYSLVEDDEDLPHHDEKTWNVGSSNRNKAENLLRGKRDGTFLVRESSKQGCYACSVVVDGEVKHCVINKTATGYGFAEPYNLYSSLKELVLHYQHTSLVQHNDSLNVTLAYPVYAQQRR
Method: as §1

p110α/p85α = p110α/p85α (Homo sapiens (Human), UniProt P42336); test: PI 3-Kinase (human) HTRF assay, p110α/p85α; type: biochemical
Chain of p110α/p85α (P42336 whole entry): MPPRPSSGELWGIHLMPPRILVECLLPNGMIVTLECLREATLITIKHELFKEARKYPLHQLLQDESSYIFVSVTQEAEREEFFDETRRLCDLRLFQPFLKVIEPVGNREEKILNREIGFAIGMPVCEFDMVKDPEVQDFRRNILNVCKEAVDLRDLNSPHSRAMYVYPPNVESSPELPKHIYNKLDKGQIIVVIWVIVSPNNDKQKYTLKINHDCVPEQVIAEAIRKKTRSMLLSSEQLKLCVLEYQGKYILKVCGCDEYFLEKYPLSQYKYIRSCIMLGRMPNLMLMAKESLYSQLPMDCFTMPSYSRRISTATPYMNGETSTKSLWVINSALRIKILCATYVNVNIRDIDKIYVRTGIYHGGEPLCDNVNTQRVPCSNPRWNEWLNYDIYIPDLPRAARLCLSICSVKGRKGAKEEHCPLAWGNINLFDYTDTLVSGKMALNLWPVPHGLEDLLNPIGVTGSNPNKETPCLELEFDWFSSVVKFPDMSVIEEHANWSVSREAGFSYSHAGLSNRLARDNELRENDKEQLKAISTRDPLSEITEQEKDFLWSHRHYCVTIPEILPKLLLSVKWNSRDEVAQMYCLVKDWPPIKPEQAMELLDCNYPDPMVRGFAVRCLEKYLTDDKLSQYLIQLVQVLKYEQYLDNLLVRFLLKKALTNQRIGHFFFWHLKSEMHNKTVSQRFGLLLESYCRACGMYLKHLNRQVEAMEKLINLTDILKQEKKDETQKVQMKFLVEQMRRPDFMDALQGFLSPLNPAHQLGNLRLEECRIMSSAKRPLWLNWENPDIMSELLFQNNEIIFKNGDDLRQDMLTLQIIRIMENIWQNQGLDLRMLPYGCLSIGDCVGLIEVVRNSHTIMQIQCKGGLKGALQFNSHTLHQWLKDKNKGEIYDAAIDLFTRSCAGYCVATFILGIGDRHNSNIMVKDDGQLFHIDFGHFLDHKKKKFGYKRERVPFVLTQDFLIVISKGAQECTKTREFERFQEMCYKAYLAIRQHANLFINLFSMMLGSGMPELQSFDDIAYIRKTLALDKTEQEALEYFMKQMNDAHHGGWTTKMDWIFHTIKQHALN
Chain of p110α/p85α (P27986 whole entry partner): as the sequence (P27986 whole entry partner) above

p110γ = p110γ (Homo sapiens (Human), UniProt P48736); test: PI 3-Kinase (human) HTRF assay, p110γ; type: biochemical
Chain of p110γ (P48736 whole entry): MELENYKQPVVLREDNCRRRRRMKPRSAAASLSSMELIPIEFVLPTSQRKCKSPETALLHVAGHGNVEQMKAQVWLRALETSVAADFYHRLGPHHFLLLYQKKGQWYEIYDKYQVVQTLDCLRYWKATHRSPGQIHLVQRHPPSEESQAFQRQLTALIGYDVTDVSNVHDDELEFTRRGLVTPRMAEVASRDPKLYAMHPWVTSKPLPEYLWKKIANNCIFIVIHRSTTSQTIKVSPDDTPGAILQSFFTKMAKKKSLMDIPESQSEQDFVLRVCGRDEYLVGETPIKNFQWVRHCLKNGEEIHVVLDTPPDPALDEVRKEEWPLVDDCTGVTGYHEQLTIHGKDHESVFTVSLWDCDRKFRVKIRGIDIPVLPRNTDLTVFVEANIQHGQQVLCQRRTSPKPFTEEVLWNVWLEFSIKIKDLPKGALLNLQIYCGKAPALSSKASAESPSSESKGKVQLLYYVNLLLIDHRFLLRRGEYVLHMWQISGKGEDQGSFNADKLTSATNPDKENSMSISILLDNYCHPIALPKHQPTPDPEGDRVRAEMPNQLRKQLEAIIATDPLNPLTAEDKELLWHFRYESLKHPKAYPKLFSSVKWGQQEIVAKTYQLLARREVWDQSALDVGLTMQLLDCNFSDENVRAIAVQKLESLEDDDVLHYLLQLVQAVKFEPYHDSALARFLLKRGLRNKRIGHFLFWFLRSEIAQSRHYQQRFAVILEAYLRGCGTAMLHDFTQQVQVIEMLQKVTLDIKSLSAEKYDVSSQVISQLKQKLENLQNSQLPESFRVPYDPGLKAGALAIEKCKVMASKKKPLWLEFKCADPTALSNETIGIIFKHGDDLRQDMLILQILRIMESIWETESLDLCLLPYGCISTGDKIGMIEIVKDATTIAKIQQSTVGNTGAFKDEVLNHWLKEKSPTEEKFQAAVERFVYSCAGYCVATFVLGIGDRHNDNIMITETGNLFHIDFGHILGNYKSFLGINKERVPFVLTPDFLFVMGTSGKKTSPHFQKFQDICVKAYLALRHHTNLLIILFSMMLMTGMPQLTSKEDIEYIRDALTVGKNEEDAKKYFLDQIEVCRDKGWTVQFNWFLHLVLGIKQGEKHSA

[2] = in vitro, read-out: PI3K δ IC50
[3] = T47D cells, read-out: T47D proliferation IC50
[4] = in vitro, read-out: PI3K β IC50
[5] = in vitro, read-out: PI3K α IC50
[6] = in vitro, read-out: PI3K γ IC50
[7] = PC3, read-out: PC3 proliferation In Vitro IC50
[8] = T47D cells, read-out: T47D proliferation

Chain of p110δ/p85α (O00329 whole entry): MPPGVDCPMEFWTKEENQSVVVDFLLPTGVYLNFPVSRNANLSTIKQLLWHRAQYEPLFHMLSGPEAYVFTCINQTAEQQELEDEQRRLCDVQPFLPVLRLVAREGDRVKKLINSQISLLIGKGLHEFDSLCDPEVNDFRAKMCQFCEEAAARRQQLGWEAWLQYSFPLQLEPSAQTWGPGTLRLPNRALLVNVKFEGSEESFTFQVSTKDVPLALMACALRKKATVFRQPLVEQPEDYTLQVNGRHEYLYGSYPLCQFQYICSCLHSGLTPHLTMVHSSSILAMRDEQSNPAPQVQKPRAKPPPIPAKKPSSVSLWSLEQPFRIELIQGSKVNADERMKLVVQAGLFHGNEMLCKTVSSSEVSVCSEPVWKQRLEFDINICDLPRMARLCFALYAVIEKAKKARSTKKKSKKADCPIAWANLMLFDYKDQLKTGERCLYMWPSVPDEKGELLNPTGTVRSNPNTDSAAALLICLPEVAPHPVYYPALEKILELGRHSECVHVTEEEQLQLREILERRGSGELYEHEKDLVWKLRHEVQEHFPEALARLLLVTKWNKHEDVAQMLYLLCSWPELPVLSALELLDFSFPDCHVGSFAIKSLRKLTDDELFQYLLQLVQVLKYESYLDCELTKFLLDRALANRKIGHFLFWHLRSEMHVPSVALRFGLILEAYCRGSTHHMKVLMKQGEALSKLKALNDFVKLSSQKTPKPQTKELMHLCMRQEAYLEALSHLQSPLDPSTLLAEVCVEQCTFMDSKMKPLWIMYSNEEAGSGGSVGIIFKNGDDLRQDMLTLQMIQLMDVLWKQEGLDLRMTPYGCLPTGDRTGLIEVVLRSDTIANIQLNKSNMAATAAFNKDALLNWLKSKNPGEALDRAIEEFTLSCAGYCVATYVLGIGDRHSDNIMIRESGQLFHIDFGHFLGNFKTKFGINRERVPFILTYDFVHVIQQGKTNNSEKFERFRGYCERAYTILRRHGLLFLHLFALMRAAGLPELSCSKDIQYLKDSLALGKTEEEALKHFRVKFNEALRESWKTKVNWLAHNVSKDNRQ
Chain of p110δ/p85α (P27986 whole entry partner): as the sequence (P27986 whole entry partner) above

| Structure (SMILES) | IC50 (p110δ/p85α; [2]) [nM] | IC50 [1, 3] [nM] | IC50 (p110β/p85α; [4]) [nM] | IC50 (p110α/p85α; [5]) [nM] | IC50 (p110γ; [6]) [nM] | IC50 (p110δ/p85α; read-out: PI3K δ IC50) [nM] | IC50 [1, 8] [nM] | IC50 (p110β/p85α; read-out: PI3K β IC50) [nM] | IC50 (p110α/p85α; read-out: PI3K α IC50) [nM] | IC50 (p110γ; read-out: PI3K γ IC50) [nM] | other results |
| --- | --- | --- | --- | --- | --- | --- | --- | --- | --- | --- | --- |
| CC(C)[C@H](N)C(=O)N1CCN(c2cnc3ccc(-c4ccc5oc(N)nc5c4)cc3n2)CC1 [compound 269] | < 1000 | < 10000 | < 1000 | < 100 | < 10000 |  |  |  |  |  |  |
| COc1ncc(-c2ccc3ncn(C4CCN(C(C)C)CC4)c(=O)c3c2)cc1NS(=O)(=O)c1ccccc1 [compound 522] |  |  |  |  |  |  |  |  |  |  | IC50 (p110δ/p85α; read-out: PI3K δ In Vitro IC50): < 100 nM; IC50 [1, 7]: < 1000 nM; IC50 (p110β/p85α; read-out: PI3K β In Vitro IC50): < 100 nM; IC50 (p110α/p85α; read-out: PI3K α In Vitro IC50): < 100 nM; IC50 (p110γ; read-out: PI3K γ In Vitro IC50): < 100 nM |
| C[C@@H]1CN(c2cnc3ccc(-c4ccc5oc(N)nc5c4)cc3n2)CCN1 [compound 179] |  |  |  |  |  | < 10000 | < 10000 | < 1000 | < 100 | < 10000 |  |
| C[C@@H]1CN(C2CN(C(=O)c3cnc4ccc(-c5ccc6oc(N)nc6c5)cn34)C2)CCN1C [compound 508] |  |  |  |  |  |  |  |  |  |  | IC50 (p110δ/p85α; read-out: PI3K δ In Vitro IC50): < 1000 nM; IC50 [1, 7]: < 1000 nM; IC50 (p110β/p85α; read-out: PI3K β In Vitro IC50): < 10000 nM; IC50 (p110α/p85α; read-out: PI3K α In Vitro IC50): < 100 nM; IC50 (p110γ; read-out: PI3K γ In Vitro IC50): < 10000 nM |
| CCNC(=O)c1cnc2ccc(-c3ccc4oc(N)nc4c3)cn12 [compound 188] |  |  |  |  |  | < 1000 | < 1000 | < 1000 | < 100 | < 100 |  |
| Nc1noc2cc(-c3ccc4nccc(-c5ccncc5)c4c3)ccc12 [compound 16] |  |  |  |  |  | < 10000 | < 1000 | < 10000 | < 100 | < 1000 |  |
| CCN(CC)CC(=O)N1CCN(c2cnc3ccc(-c4ccc5oc(N)nc5c4)cc3n2)CC1 [compound 279] | < 10000 | < 1000 | < 10000 | < 100 | < 10000 |  |  |  |  |  |  |
| C[C@H]1CN(C2CN(C(=O)c3cnc4ccc(-c5ccc6oc(N)nc6c5)cn34)C2)CCN1 [compound 510] |  |  |  |  |  |  |  |  |  |  | IC50 (p110δ/p85α; read-out: PI3K δ In Vitro IC50): < 1000 nM; IC50 [1, 7]: < 10000 nM; IC50 (p110β/p85α; read-out: PI3K β In Vitro IC50): < 10000 nM; IC50 (p110α/p85α; read-out: PI3K α In Vitro IC50): < 100 nM; IC50 (p110γ; read-out: PI3K γ In Vitro IC50): < 10000 nM |
| Nc1nc2cc(-c3ccc4ncc(N5CC(N6CCN(CCO)CC6)C5)nc4c3)ccc2o1 [compound 333] | < 1000 | < 1000 | < 10000 | < 100 | < 10000 |  |  |  |  |  |  |
| Nc1nc2cc(-c3ccc4ncc(C(=O)N5CC(O)C5)n4c3)ccc2o1 [compound 200] | < 10000 | < 10000 | < 10000 | < 100 | < 100 |  |  |  |  |  |  |
| CN1CCC(NC(=O)c2cnc3ccc(-c4ccc5oc(N)nc5c4)cn23)CC1 [compound 159] |  |  |  |  |  | < 100 | < 10000 | < 1000 | < 100 | < 1000 |  |
| CN1CCN(CCNc2cnc3ccc(-c4ccc5oc(N)nc5c4)cc3n2)CC1 [compound 275] | < 1000 | < 1000 | < 1000 | < 100 | < 1000 |  |  |  |  |  |  |
| Nc1nc2cc(-c3ccc4ncc(N5CCN(CC6CC6)CC5)nc4c3)ccc2o1 [compound 153] |  |  |  |  |  | < 1000 | < 1000 | < 100 | < 100 | < 1000 |  |
| CN(C)CC(=O)N1CCC(Nc2ncnc3ccc(-c4ccc5oc(N)nc5c4)cc23)CC1 [compound 103] |  |  |  |  |  | < 1000 | < 10000 | < 1000 | < 100 | < 1000 |  |
| C[C@@H]1CN(C2CN(c3cnc4ccc(-c5ccc6oc(N)nc6c5)cc4n3)C2)CCN1 [compound 355] | < 1000 | < 1000 | < 10000 | < 100 | < 10000 |  |  |  |  |  |  |
| C[C@H]1CN(C2CN(C(=O)c3cnc4ccc(-c5ccc6oc(N)nc6c5)cn34)C2)CCN1C [compound 512] |  |  |  |  |  |  |  |  |  |  | IC50 (p110δ/p85α; read-out: PI3K δ In Vitro IC50): < 1000 nM; IC50 [1, 7]: < 1000 nM; IC50 (p110β/p85α; read-out: PI3K β In Vitro IC50): < 10000 nM; IC50 (p110α/p85α; read-out: PI3K α In Vitro IC50): < 100 nM; IC50 (p110γ; read-out: PI3K γ In Vitro IC50): < 10000 nM |

| Structure (SMILES) | IC50 (p110δ/p85α; [2]) [nM] | IC50 [1, 3] [nM] | IC50 (p110β/p85α; [4]) [nM] | IC50 (p110α/p85α; [5]) [nM] | IC50 (p110γ; [6]) [nM] | IC50 (p110δ/p85α; read-out: PI3K δ IC50) [nM] | IC50 [1, 8] [nM] | IC50 (p110β/p85α; read-out: PI3K β IC50) [nM] | IC50 (p110α/p85α; read-out: PI3K α IC50) [nM] | IC50 (p110γ; read-out: PI3K γ IC50) [nM] | other results |
| --- | --- | --- | --- | --- | --- | --- | --- | --- | --- | --- | --- |
| COc1ncc(-c2ccc3ncn(C4CCN(C)CC4)c(=O)c3c2)cc1NS(=O)(=O)c1ccccc1 [compound 524] |  |  |  |  |  |  |  |  |  |  | IC50 (p110δ/p85α; read-out: PI3K δ In Vitro IC50): < 100 nM; IC50 [1, 7]: < 1000 nM; IC50 (p110β/p85α; read-out: PI3K β In Vitro IC50): < 100 nM; IC50 (p110α/p85α; read-out: PI3K α In Vitro IC50): < 100 nM; IC50 (p110γ; read-out: PI3K γ In Vitro IC50): < 1000 nM |
| Nc1nc2cc(-c3ccc4ncc(N5CCN(C(=O)C6(N)CCC6)CC5)nc4c3)ccc2o1 [compound 286] | < 1000 | < 1000 | < 1000 | < 100 | < 100 |  |  |  |  |  |  |
| Nc1nc2cc(-c3ccc4ncc(C(=O)N5CCN(C6CC6)CC5)n4c3)ccc2o1 [compound 263] | < 10000 | < 10000 | < 10000 | < 100 | < 10000 |  |  |  |  |  |  |
| CN1CC(C(=O)N2CCN(c3cnc4ccc(-c5ccc6oc(N)nc6c5)cc4n3)CC2)C1 [compound 156] |  |  |  |  |  | < 1000 | < 1000 | < 1000 | < 100 | < 1000 |  |
| Nc1nc2cc(-c3ccc4ncc(C(=O)NC5CC5)n4c3)ccc2o1 [compound 187] |  |  |  |  |  | < 1000 | < 1000 | < 10000 | < 100 | < 100 |  |
| O=C(c1cnc2ccc(-c3cnc(Cl)c(NS(=O)(=O)c4ccccc4)c3)cn12)N1CCOCC1 [compound 451] |  |  |  |  |  |  |  |  |  |  | IC50 (p110δ/p85α; read-out: PI3K δ In Vitro IC50): < 100 nM; IC50 [1, 7]: < 1000 nM; IC50 (p110β/p85α; read-out: PI3K β In Vitro IC50): < 1000 nM; IC50 (p110α/p85α; read-out: PI3K α In Vitro IC50): < 100 nM; IC50 (p110γ; read-out: PI3K γ In Vitro IC50): < 100 nM |
| CNC(=O)N1CCN(c2cnc3ccc(-c4ccc5oc(N)nc5c4)cc3n2)CC1 [compound 154] |  |  |  |  |  | < 10000 | < 1000 | < 1000 | < 100 | < 100 |  |
| Nc1nc2cc(-c3ccc4ncc(N5CCC(O)CC5)nc4c3)ccc2o1 [compound 99] |  |  |  |  |  | < 1000 | < 10000 | < 10000 | < 100 | < 1000 |  |
| Nc1nc2cc(-c3ccc4ncc(C(=O)N5CC(N6CCOCC6)C5)n4c3)ccc2o1 [compound 266] | < 1000 | < 10000 | < 10000 | < 100 | < 1000 |  |  |  |  |  |  |
| Nc1nc2cc(-c3ccc4ncc(C(=O)N5CC(N6CC[C@H](O)C6)C5)n4c3)ccc2o1 [compound 469] |  |  |  |  |  |  |  |  |  |  | IC50 (p110δ/p85α; read-out: PI3K δ In Vitro IC50): < 10000 nM; IC50 [1, 7]: < 10000 nM; IC50 (p110β/p85α; read-out: PI3K β In Vitro IC50): < 10000 nM; IC50 (p110α/p85α; read-out: PI3K α In Vitro IC50): < 100 nM; IC50 (p110γ; read-out: PI3K γ In Vitro IC50): < 1000 nM |
| Nc1nc2cc(-c3ccc4ncc(C(=O)NCCCN5CCCC5)n4c3)ccc2o1 [compound 293] | < 100 | < 1000 | < 1000 | < 100 | < 1000 |  |  |  |  |  |  |
| Cc1cn(C2CCN(c3cnc4ccc(-c5ccc6oc(N)nc6c5)cc4n3)CC2)cn1 [compound 338] | < 10000 | < 10000 | < 10000 | < 100 | < 10000 |  |  |  |  |  |  |
| Nc1nc2cc(-c3ccc4ncc(C(=O)N5CCCC5)n4c3)ccc2o1 [compound 186] |  |  |  |  |  | < 1000 | < 10000 | < 10000 | < 100 | < 100 |  |
| CC1(C)CN(C2CN(C(=O)c3cnc4ccc(-c5ccc6oc(N)nc6c5)cn34)C2)CCN1 [compound 515] |  |  |  |  |  |  |  |  |  |  | IC50 (p110δ/p85α; read-out: PI3K δ In Vitro IC50): < 100 nM; IC50 [1, 7]: < 1000 nM; IC50 (p110β/p85α; read-out: PI3K β In Vitro IC50): < 10000 nM; IC50 (p110α/p85α; read-out: PI3K α In Vitro IC50): < 100 nM; IC50 (p110γ; read-out: PI3K γ In Vitro IC50): < 1000 nM |
| CC(=O)N1CCC(N(C)c2ncnc3ccc(-c4ccc5oc(N)nc5c4)cc23)CC1 [compound 137] |  |  |  |  |  | < 1000 | < 1000 | < 1000 | < 100 | < 1000 |  |
| Nc1nc2cc(-c3ccc4ncc(N5CCN(C(=O)[C@H](N)CO)CC5)nc4c3)ccc2o1 [compound 299] | < 100 | < 1000 | < 1000 | < 100 | < 100 |  |  |  |  |  |  |
